Conditions: nicotine concentration increased from 100 microgram/mL to 14,000 microgram/mL

**Q.** For CN1CCCC1c1cccnc1 (stereo not shown) [nicotine], which “Decrease of permeability of nicotine across the buccal mucosa (factor)” value is on record?
**A.** two

From patent publication US20200397691A1, “NICOTINE MOUTH SPRAY” (Fertin Pharma A/S, priority 2017, published 2020)
